We go through two compounds from patent US20110250262A1, “METHOD FOR PRODUCING LIPOSOME AND METHOD FOR DISSOLVING CHOLESTEROL” (BIOMEDCORE, INC., priority 2008, published 2011).

This data set is described as follows: Visual examination of dissolution of phospholipid and cholesterol in sucrose solution containing t-BuOH during cooling from 80° C. In kind it is physicochemical. To be noted: cooled from 80° C. Here is the method: […] […] The solution was in the white opaque state at 80° C. Next, the temperature control of the water bath was off while still stirred, so that the solution was slowly cooled down at room temperature. It took about 90 min for the temperature of the water bath to be cooled from 80° C. to 35° C. The solution, which was in the white opaque state at 80° C., turned into a slightly pale transparent state around at 72° C., and the transparency persisted until the temperature fell to around 62° C. From around 62° C., the solution started to become white opaque again, turning into a completely white opaque state at 58° C. This change of state was reversible: the similar change of state was observed when the temperature was gradually raised from room temperature.
This state persisted until the temperature fell down to about 35° C., where the solution suddenly changed into a white opaque state.

Setting [1] is: 200 mg cholesterol with 380 mg DPPC in 20 mL 10 wt/vol % sucrose solution + 4.25 mL t-BuOH.

Turning to `CCCCCCCCCCCCCCCC(=O)OC[C@H](COP(=O)([O-])OCC[N+](C)(C)C)OC(=O)CCCCCCCCCCCCCCC` [DPPC, L-α-dipalmitoylphosphatidylcholine], the “State of the aqueous solution (dissolution), DPPC alone” value (75.9 mg DPPC alone in 4 mL 10 wt/vol % sucrose solution + 0.85 mL t-BuOH) is “transparent state between 80 °C and 50 °C”.
Consider `CC(C)CCC[C@@H](C)[C@H]1CC[C@H]2[C@@H]3CC=C4C[C@@H](O)CC[C@]4(C)[C@H]3CC[C@]12C` [cholesterol, Cholesterol], for which, under “40 mg cholesterol alone in 4 mL 10 wt/vol % sucrose solution + 0.85 mL t-BuOH”, the “State of the aqueous solution (dissolution), cholesterol alone” value is recorded as “the solution never became transparent at any temperature”. Also, under setting [1], the “Lower temperature of the transparent (dissolved) state of the solution” value is “around 62 °C” and the “Upper temperature of the transparent (dissolved) state of the solution” value is ~72 °C.
